T1: riboflavin synthase of E. coli (Escherichia coli, UniProt P0AFU8)
T1 sequence (P0AFU8 1-213): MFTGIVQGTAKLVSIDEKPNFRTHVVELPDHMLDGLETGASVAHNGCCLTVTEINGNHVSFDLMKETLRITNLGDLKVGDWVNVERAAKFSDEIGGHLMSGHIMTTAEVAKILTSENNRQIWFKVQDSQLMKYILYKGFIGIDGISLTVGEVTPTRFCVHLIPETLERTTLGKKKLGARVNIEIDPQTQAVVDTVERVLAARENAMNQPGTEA

T2: riboflavin synthase of S. pombe (SSP-Rosy) (Schizosaccharomyces pombe, UniProt Q9Y7P0)
T2 sequence (Q9Y7P0 1-208): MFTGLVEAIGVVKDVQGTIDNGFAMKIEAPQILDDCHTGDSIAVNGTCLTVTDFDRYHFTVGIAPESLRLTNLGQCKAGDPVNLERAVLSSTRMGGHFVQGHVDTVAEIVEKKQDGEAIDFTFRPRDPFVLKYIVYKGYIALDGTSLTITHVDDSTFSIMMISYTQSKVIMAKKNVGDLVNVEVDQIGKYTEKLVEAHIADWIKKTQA

T3: riboflavin synthase of B. subtilis (Bacillus subtilis, UniProt P16440)
T3 sequence (P16440 1-215): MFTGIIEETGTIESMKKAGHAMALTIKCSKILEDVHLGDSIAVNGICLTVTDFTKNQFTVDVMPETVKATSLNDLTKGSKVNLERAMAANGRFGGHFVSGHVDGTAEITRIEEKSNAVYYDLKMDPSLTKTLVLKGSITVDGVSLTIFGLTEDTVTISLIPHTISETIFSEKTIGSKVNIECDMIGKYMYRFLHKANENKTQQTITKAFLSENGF

T4: recombinant N-terminal domain of E. coli riboflavin synthase (Escherichia coli, UniProt P0AFU8)
T4 sequence (P0AFU8 1-97): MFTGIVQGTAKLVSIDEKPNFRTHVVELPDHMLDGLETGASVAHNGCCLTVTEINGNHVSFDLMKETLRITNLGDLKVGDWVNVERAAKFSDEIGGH

B1: Riboflavin synthase of Schizosaccharomyces pombe (enzyme, UniProt Q9Y7P0 1-208, looked up)
chain: T2 sequence (Q9Y7P0 1-208)

How the values were obtained:
[1] = biological target: T1, riboflavin synthase of E. coli; assay: […] NMR protein perturbation; format: binding; conditions: 20 mM phosphate pH 7.0, 100 mM KCl, 10% D2O, 11 °C
[2] = biological target: T2, riboflavin synthase of S. pombe (SSP-Rosy); assay: […] NMR protein perturbation; format: binding; conditions: 20 mM phosphate pH 7.0, 100 mM KCl, 10% D2O, 11 °C
[3] = biological target: lumazine protein of P. leiognathi (Photobacterium leiognathi, UniProt Q06877); assay: […] NMR protein perturbation; format: binding; conditions: 20 mM phosphate pH 7.0, 100 mM KCl, 10% D2O, 11 °C
[4] = biological target: T3, riboflavin synthase of B. subtilis; assay: […] NMR protein perturbation; format: binding; conditions: 20 mM phosphate pH 7.0, 100 mM KCl, 10% D2O, 11 °C
[5] = biological target: T4, recombinant N-terminal domain of E. coli riboflavin synthase; assay: […] NMR protein perturbation; format: binding; conditions: 20 mM phosphate pH 7.0, 100 mM KCl, 10% D2O, 11 °C
[6] = biological target: T2, riboflavin synthase of S. pombe (SSP-Rosy); assay: […] NMR displacement of compound 6a; format: binding; conditions: 20 mM phosphate pH 7.0, 100 mM KCl, 10% D2O, 11 °C; data not shown
AUC = biological target: the molecule itself; assay: AUC

lumazine protein of P. leiognathi, sequence (Q06877 whole entry): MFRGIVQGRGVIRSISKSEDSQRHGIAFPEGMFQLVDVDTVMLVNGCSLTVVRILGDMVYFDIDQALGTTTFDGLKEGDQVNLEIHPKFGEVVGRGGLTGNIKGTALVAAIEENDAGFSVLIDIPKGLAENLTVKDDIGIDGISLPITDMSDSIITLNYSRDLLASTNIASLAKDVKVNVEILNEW

Row | Molecule | 19F NMR bound-ligand signal [1] | 19F NMR bound-ligand signal [2] | 19F NMR bound-ligand signal [3] | 19F NMR bound-ligand signal [4] | 19F NMR bound-ligand signal [5] | 19F NMR displacement of compound 6a [6] | stoichiometry N (AUC)
1 | O=c1[nH]c(=O)c2nc(C(F)(F)F)c(=O)n(C[C@H](O)[C@H](O)[C@H](O)CO)c2[nH]1 [compound 7, 6-trifluoromethyl-7-oxo-8-ribityllumazine] | The riboflavin synthases of E. coli (Fig. 5C) | in complex with riboflavin synthase of S. pombe shows four signals | lumazine protein (Fig. 5A) | B. subtilis (Fig. 5D) show similar signal multiplicities | show single and much narrower lines for the protein bound ligand | – | –
2 | Cc1cc2nc3c(=O)[nH]c(=O)nc-3n(C[C@H](O)[C@H](O)[C@H](O)CO)c2cc1C [compound 4, riboflavin] | – | – | – | – | – | could be displaced from S. pombe protein by addition of riboflavin | –
3 | O=c1[nH]c2c(c(=O)[nH]1)N=C(C(F)(F)F)[C@@](O)(C(F)(F)F)N2C[C@H](O)[C@H](O)[C@H](O)CO (single isomer, unassigned; epimer a) [6a, 6,7-bis(trifluoromethyl)-8-ribityllumazine hydrate (epimer A)] | the riboflavin synthases (Figs. 6C,6D,6E) studied show multiple signals | riboflavin synthase of S. pombe binds epimer A | show single lines for each trifluoromethyl group of bound Compound 6a | the riboflavin synthases (Figs. 6C,6D,6E) studied show multiple signals | show single lines for each trifluoromethyl group of bound Compound 6a | – | –
4 | B1 | – | – | – | – | – | – | 3
